According to patent US20040254162A1, “Oxazolidinone derivatives as antimicrobials” (priority 2001, published 2004):
≈ marks a conversion by molar mass, not a printed value. Where “and” joins values, the source holds several entries; their conditions need not be identical. Equal entries are not always repeated. Where two headings read alike, the source gives them in different places.

What was measured:
[1] = tested on: Mycobacterium tuberculosis; assay: microbe, parasite or virus in culture; settings: 504 h
[2] = tested on: Mycobacterium tuberculosis
[3] = tested on: Mycobacterium avium intracellulare; assay: Agar dilution method, mycobacteria; format: cell-based; settings: for MIC50 / MIC90: Mycobacterium avium, 504 h, Middlebrook 7H10 agar, 21 days; for MIC50: read-out: MIC50; for MIC90: read-out: MIC90
Porphyromonas gingivalis = assay: Agar dilution MIC, anaerobes; format: cell-based; settings: single isolate, anaerobic agar dilution
Prevotella bivia = assay: Agar dilution MIC, anaerobes; format: cell-based; settings: single isolate, anaerobic agar dilution
Bacteroides fragilis = assay: Agar dilution MIC, anaerobes; format: cell-based; settings: single isolates, anaerobic agar dilution
[4] = tested on: Peptostreptococcus prevotii; assay: Agar dilution MIC, anaerobes; format: cell-based; settings: single isolates, anaerobic agar dilution
[5] = tested on: Prevotella melaninogenica; assay: Agar dilution MIC, anaerobes; format: cell-based; settings: single isolates, anaerobic agar dilution
Clostridium difficile = assay: Agar dilution MIC, anaerobes; format: cell-based; settings: single isolates, anaerobic agar dilution
[6] = tested on: Peptostreptococcus tetradius; assay: Agar dilution MIC, anaerobes; format: cell-based; settings: single isolates, anaerobic agar dilution
Prevotella intermedia = assay: Agar dilution MIC, anaerobes; format: cell-based; settings: single isolates, anaerobic agar dilution
Fusobacterium montiferum = assay: Agar dilution MIC, anaerobes; format: cell-based; settings: Fusobacterium, single isolates, anaerobic agar dilution; read-out: MIC Fusobacterium montiferum
anaerobic bacteria = assay: Agar dilution method for anaerobic bacteria, summary; format: cell-based
Clostridium camis = assay: Agar dilution MIC, anaerobes; format: cell-based; settings: single isolates, anaerobic agar dilution
Eubacterium leutum = assay: Agar dilution MIC, anaerobes; format: cell-based; settings: single isolates, anaerobic agar dilution
[7] = tested on: Prevotella (Bacteroides) disiens; assay: Agar dilution MIC, anaerobes; format: cell-based; settings: single isolates, anaerobic agar dilution
[8] = tested on: Peptostreptococcus micros; assay: Agar dilution MIC, anaerobes; format: cell-based; settings: single isolates, anaerobic agar dilution
Fusobacterium varium = assay: Agar dilution MIC, anaerobes; format: cell-based; settings: single isolates, anaerobic agar dilution
P. acnes = assay: Agar dilution MIC, anaerobes; format: cell-based; settings: single isolates, anaerobic agar dilution
[9] = tested on: Porphyromonas asaccharolytica; assay: Agar dilution MIC, anaerobes; format: cell-based; settings: single isolate, anaerobic agar dilution
Clostridium perfringens = assay: microbe, parasite or virus in culture; format: cell-based
Fusobacterium necrogenes = assay: Agar dilution MIC, anaerobes; format: cell-based; settings: single isolate, anaerobic agar dilution
Fusobacterium nucleatum = assay: Agar dilution MIC, anaerobes; format: cell-based; settings: single isolates, anaerobic agar dilution
[10] = tested on: Peptostreptococcus asaccharolyticus; assay: Agar dilution MIC, anaerobes; format: cell-based; settings: single isolates, anaerobic agar dilution
[11] = tested on: Peptostreptococcus magnum; assay: Agar dilution MIC, anaerobes; format: cell-based; settings: single isolates, anaerobic agar dilution; listed as Ax/clav
[12] = anaerobes, Wilkins Chalgren agar, 48 hour

**Q.** With NNC(=O)c1ccncc1 [Isoniazid] as the compound, how does the MIC50 [1] read?
**A.** Its MIC50 is 8 µg/mL (≈ 58.3 µM).

**Q.** What about the MIC90 [1] of the same compound?
**A.** Its MIC90 is 64 µg/mL (≈ 467 µM).

**Q.** And the G.M. ([2]; geometric mean MIC)?
**A.** The G.M. was 3.17 µg/mL.

**Q.** And the MIC50 [3]?
**A.** Its MIC50 is 32 µg/mL (≈ 233 µM).

**Q.** And the MIC90 [3]?
**A.** The MIC90 was 64 µg/mL (≈ 467 µM).

**Q.** And the G.M. ([3]; geometric mean MIC)?
**A.** The G.M. was 18.149 µg/mL.

**Q.** How did the MIC (Porphyromonas gingivalis; Porphyromonas gingivalis, read-out: MIC Porphyromonas gingivalis) turn out when Cc1ncc([N+](=O)[O-])n1CCO [Metronidazole] was run?
**A.** Its MIC is ≤ 0.125 µg/mL.

**Q.** What about the MIC (Prevotella bivia; Prevotella bivia, read-out: MIC Prevotella bivia) of the same compound?
**A.** The MIC was 1 µg/mL (≈ 5.84 µM).

**Q.** And the MIC (Bacteroides fragilis; Bacteroides fragilis, read-out: MIC Bacteroides fragilis)?
**A.** Its MIC is 0.5 µg/mL (≈ 2.92 µM).

**Q.** What about the “MIC Bacteroides fragilis” value (Bacteroides fragilis) of the same compound?
**A.** Its value is 1 µg/mL (≈ 5.84 µM).

**Q.** What about the MIC ([4]; Anaerococcus prevotii, read-out: MIC Peptostreptococcus prevotii) of the same compound?
**A.** The MIC was 2 µg/mL (≈ 11.7 µM).

**Q.** What about the “MIC Peptostreptococcus prevotii” value [4] of the same compound?
**A.** Its value is 1 µg/mL (≈ 5.84 µM).

**Q.** What about the MIC ([5]; Prevotella melaninogenica, read-out: MIC Prevotella melaninogenica) of the same compound?
**A.** The MIC was 0.25 µg/mL (≈ 1.46 µM).

**Q.** And the “MIC Prevotella melaninogenica” value [5]?
**A.** Its value is 0.5 µg/mL (≈ 2.92 µM).

**Q.** What about the MIC (Clostridium difficile; Clostridioides difficile, read-out: MIC Clostridium difficile) of the same compound?
**A.** The MIC was 0.25 µg/mL (≈ 1.46 µM).

**Q.** What about the MIC ([6]; Anaerococcus tetradius, read-out: MIC Peptostreptococcus tetradius) of the same compound?
**A.** Its MIC is 1 µg/mL (≈ 5.84 µM).

**Q.** What about the MIC (Prevotella intermedia; Prevotella intermedia, read-out: MIC Prevotella intermedia) of the same compound?
**A.** Its MIC is 0.5 µg/mL (≈ 2.92 µM).

**Q.** And the “MIC Prevotella intermedia” value (Prevotella intermedia)?
**A.** The value was 0.25 µg/mL (≈ 1.46 µM).

**Q.** And the MIC (Fusobacterium montiferum)?
**A.** The MIC was ≤ 0.125 µg/mL.

**Q.** What about the MIC50 (anaerobic bacteria; 48 h) of the same compound?
**A.** The MIC50 was 0.5 µg/mL (≈ 2.92 µM).

**Q.** What about the MIC90 (anaerobic bacteria; 48 h) of the same compound?
**A.** Its MIC90 is 2 µg/mL (≈ 11.7 µM).

**Q.** And the “Geometric Mean” value (anaerobic bacteria; anaerobes)?
**A.** Its value is 0.48 µg/mL.

**Q.** What about the “MIC Range” value (anaerobic bacteria; anaerobes) of the same compound?
**A.** Its value is 0.062 to 32 µg/mL.

**Q.** What about the MIC (Clostridium camis; Clostridium, read-out: MIC Clostridium camis) of the same compound?
**A.** Its MIC is ≤ 0.125 µg/mL.

**Q.** What about the MIC (Eubacterium leutum; Eubacterium, read-out: MIC Eubacterium leutum) of the same compound?
**A.** The MIC was 0.25 µg/mL (≈ 1.46 µM).

**Q.** And the “MIC Eubacterium leutum” value (Eubacterium leutum)?
**A.** The value was 0.5 µg/mL (≈ 2.92 µM).

**Q.** And the “MIC Prevotella (Bacteroides) disiens” value [7]?
**A.** Its value is 1 µg/mL (≈ 5.84 µM).

**Q.** What about the MIC ([7]; read-out: MIC Prevotella (Bacteroides) disiens) of the same compound?
**A.** Its MIC is 0.5 µg/mL (≈ 2.92 µM).

**Q.** What about the MIC ([8]; Parvimonas micra, read-out: MIC Peptostreptococcus micros) of the same compound?
**A.** Its MIC is 0.25 µg/mL (≈ 1.46 µM).

**Q.** And the “MIC Peptostreptococcus micros” value [8]?
**A.** Its value is 0.5 µg/mL (≈ 2.92 µM).

**Q.** And the MIC (Fusobacterium varium; Fusobacterium varium, read-out: MIC Fusobacterium varium)?
**A.** Its MIC is ≤ 0.125 µg/mL.

**Q.** And the MIC (P. acnes; Cutibacterium acnes, read-out: MIC P. acnes)?
**A.** The MIC was > 16 µg/mL.

**Q.** What about the MIC ([9]; Porphyromonas asaccharolytica, read-out: MIC Porphyromonas asaccharolytica) of the same compound?
**A.** The MIC was ≤ 0.125 µg/mL.

**Q.** What about the MIC (Clostridium perfringens; Clostridium perfringens, read-out: MIC Clostridium perfringens, single isolates, anaerobic agar dilution) of the same compound?
**A.** Its MIC is 1 µg/mL (≈ 5.84 µM).

**Q.** What about the MIC (Fusobacterium necrogenes; Fusobacterium necrogenes, read-out: MIC Fusobacterium necrogenes) of the same compound?
**A.** Its MIC is 0.25 µg/mL (≈ 1.46 µM).

**Q.** Which results are given for CO[C@H]1/C=C/O[C@@]2(C)Oc3c(C)c(O)c4c(O)c(c(/C=N/N5CCN(C)CC5)c(O)c4c3C2=O)NC(=O)/C(C)=C\C=C\[C@H](C)[C@H](O)[C@@H](C)[C@@H](O)[C@@H](C)[C@H](OC(C)=O)[C@@H]1C [Rifampicin]?
**A.** MIC50 [1]: 64 µg/mL (≈ 77.8 µM); MIC90 [1]: 64 µg/mL (≈ 77.8 µM); G.M. [2]: 6.35 µg/mL; G.M. [3]: 1.999 µg/mL; MIC50 [3]: 1 µg/mL (≈ 1.22 µM); MIC90 [3]: 32 µg/mL (≈ 38.9 µM)

**Q.** What does the source list for C[C@@H]1CN(c2c(F)c(N)c3c(=O)c(C(=O)O)cn(C4CC4)c3c2F)C[C@H](C)N1 [Sparfloxacin]?
**A.** MIC50 [1]: 1 µg/mL (≈ 2.55 µM); MIC90 [1]: 2 µg/mL (≈ 5.1 µM); G.M. ([2]; geometric mean MIC): 0.53 µg/mL; MIC50 [3]: 4 µg/mL (≈ 10.2 µM); MIC90 [3]: 8 µg/mL (≈ 20.4 µM); G.M. ([3]; geometric mean MIC): 3.526 µg/mL

**Q.** Which results are given for Amox + clav?
**A.** MIC Porphyromonas gingivalis (Porphyromonas gingivalis): <=.125 μg/ml; MIC Prevotella bivia (Prevotella bivia): <=.125 μg/ml; MIC Fusobacterium nucleatum (Fusobacterium nucleatum): <=.125 μg/ml; MIC Peptostreptococcus prevotii [4]: <=.125 μg/ml; MIC Prevotella melaninogenica [5]: 2 µg/mL; MIC Clostridium difficile (Clostridium difficile): 1 µg/mL; MIC Peptostreptococcus tetradius [6]: <=.125 μg/ml; MIC Prevotella intermedia (Prevotella intermedia): <=.125 μg/ml; Geometric Mean (anaerobic bacteria; anaerobes): 0.423 µg/mL; MIC Range (anaerobic bacteria; anaerobes): 0.062 to 32 µg/mL; MIC50 (anaerobic bacteria; [12]): 0.25 µg/mL; MIC90 (anaerobic bacteria; [12]): 8 µg/mL; MIC Clostridium camis (Clostridium camis): <=.125 μg/ml; MIC Eubacterium leutum (Eubacterium leutum): 1 µg/mL; MIC Peptostreptococcus asaccharolyticus [10]: 0.25 µg/mL; MIC Peptostreptococcus magnum [11]: 0.25 µg/mL and 0.5 µg/mL; MIC Peptostreptococcus micros [8]: <=.125 μg/ml; MIC Fusobacterium varium (Fusobacterium varium): 1 µg/mL; MIC P. acnes (P. acnes): 0.25 µg/mL; MIC Porphyromonas asaccharolytica [9]: <=.125 μg/ml; MIC Clostridium perfringens (Clostridium perfringens; single isolates, anaerobic agar dilution): <=.125 μg/ml; MIC Fusobacterium necrogenes (Fusobacterium necrogenes): 0.5 µg/mL
